The text below walks through data of US8865756B2, “Inhibitors of HCV NS5A” (Presidio Pharmaceuticals, Inc., priority 2008, dated 2014).

A value given as a limit tells only on which side of the number the result lay.

In the experiment the test system is HCV 1b_Huh-Luc/Neo-ET cell line persistently expressing a bicistronic genotype 1b replicon in Huh 7 cells. Nature of the experiment: HCV replicon assay (luciferase readout). The class given is cell-based. The conditions noted are these: Hepatitis C virus, Huh-7, 72 h, read-out: Inhibition of HCV genotype 1b. The method in brief:
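EC50, determined repeatedly, comes from a four-parameter logistic fit of luciferase signal as percent of untreated control. Readout follows 72 h compound exposure, in triplicate, of the HCV 1b_Huh-Luc/Neo-ET replicon line.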
For the compound `COC(=O)N[C@@H](C(=O)N(C)[C@@H](C)c1ncc(-c2ccc(C#Cc3ccc(-c4cnc([C@@H]5CCCN5C(=O)[C@H](NC(=O)OC)c5ccccc5)[nH]4)cc3)cc2)[nH]1)c1ccccc1` [Compound 274], the EC50 was under 1 nM.
In the case of `COC(=O)N[C@H](C(=O)N[C@@H](C)c1ncc(-c2ccc(C#Cc3ccc(-c4cnc([C@@H]5CCCN5C(=O)[C@@H](NC(=O)OC)C(C)C)[nH]4)cc3)cc2)[nH]1)C(C)C` [Compound 275], the EC50 is under 1 nM.
`COC(=O)N[C@H](C(=O)N[C@H](c1ncc(-c2ccc(C#Cc3ccc(-c4cnc([C@@H]5CCCN5C(=O)[C@@H](NC(=O)OC)C(C)C)[nH]4)cc3)cc2)[nH]1)C(C)C)C(C)C` [Compound 276]: the EC50 lay in the range of 1 to 9.9 nM.
Turning to `COC(=O)N[C@@H](C(=O)N1CCC[C@H]1c1ncc(-c2ccc(C#Cc3ccc(-c4cnc([C@@H]5CCCN5C(=O)[C@H](NC(=O)C5(O)CC5)c5ccccc5)[nH]4)cc3)cc2)[nH]1)c1ccccc1` [Compound 277], the EC50 is under 1 nM.
In the case of `C[C@@H](c1ncc(-c2ccc(C#Cc3ccc(-c4cnc([C@@H]5CCCN5C(=O)[C@H](NC(=O)C5CC5)c5ccccc5)[nH]4)cc3)cc2)[nH]1)N(C)C(=O)[C@H](NC(=O)C1CC1)c1ccccc1` [Compound 278], the EC50 is under 1 nM.
For `COC(=O)N[C@@H](C(=O)N[C@@H](C)c1ncc(-c2ccc(C#Cc3ccc(-c4cnc([C@@H]5CCCN5C(=O)[C@H](NC(=O)OC)c5ccccc5)[nH]4)cc3)cc2)[nH]1)c1ccccc1` [Compound 279] the value was under 1 nM; for `C[C@H](NC(=O)[C@H](NC(=O)OC(C)(C)C)c1ccccc1)c1ncc(-c2ccc(C#Cc3ccc(-c4cnc([C@@H]5CCCN5C(=O)[C@H](NC(=O)OC(C)(C)C)c5ccccc5)[nH]4)cc3)cc2)[nH]1` [Compound 280], under 1 nM.
On to `CC(C)[C@H](NC(=O)[C@H](NC(=O)OC(C)(C)C)c1ccccc1)c1ncc(-c2ccc(C#Cc3ccc(-c4cnc([C@@H]5CCCN5C(=O)[C@H](NC(=O)OC(C)(C)C)c5ccccc5)[nH]4)cc3)cc2)[nH]1` [Compound 281], for which the EC50 was 1 to 9.9 nM.
For `COC(=O)N[C@@H](C(=O)N[C@H](c1ncc(-c2ccc(C#Cc3ccc(-c4cnc([C@@H]5CCCN5C(=O)[C@H](NC(=O)OC)c5ccccc5)[nH]4)cc3)cc2)[nH]1)C(C)C)c1ccccc1` [Compound 282] the value was under 1 nM.
The figure for `COC(=O)N[C@H](C(=O)N1CCC[C@H]1c1ncc(-c2ccc(C#Cc3ccc(-c4cnc([C@@H]5CCCN5C(=O)[C@@H](NC(=O)OC)[C@@H](C)O)[nH]4)cc3)cc2)[nH]1)[C@@H](C)O` [Compound 283] is under 1 nM; for `COC(=O)N[C@H](C(=O)N1CCC[C@H]1c1ncc(-c2ccc(C#Cc3ccc(-c4cnc([C@@H]5CCCN5C(=O)[C@@H](NC(=O)OC)[C@@H](C)OC)[nH]4)cc3)cc2)[nH]1)[C@@H](C)OC` [Compound 284] it is under 1 nM.
As to `CC(C)[C@H](NC(=O)N1CCOCC1)C(=O)N1CCC[C@H]1c1ncc(-c2ccc(C#Cc3ccc(-c4cnc([C@@H]5CCCN5C(=O)[C@@H](NC(=O)N5CCOCC5)C(C)C)[nH]4)cc3)cc2)[nH]1` [Compound 285], the EC50 is over 1000 nM.
The figure for `CC(C)[C@H](NC(=O)N1CCC(O)CC1)C(=O)N1CCC[C@H]1c1ncc(-c2ccc(C#Cc3ccc(-c4cnc([C@@H]5CCCN5C(=O)[C@@H](NC(=O)N5CCC(O)CC5)C(C)C)[nH]4)cc3)cc2)[nH]1` [Compound 286] is over 1000 nM; for `CC(C)[C@H](NC(=O)N1CCN(C)CC1)C(=O)N1CCC[C@H]1c1ncc(-c2ccc(C#Cc3ccc(-c4cnc([C@@H]5CCCN5C(=O)[C@@H](NC(=O)N5CCN(C)CC5)C(C)C)[nH]4)cc3)cc2)[nH]1` [Compound 287] it is over 1000 nM.
Consider `CC(C)[C@H](NC(=O)N1CCCC1)C(=O)N1CCC[C@H]1c1ncc(-c2ccc(C#Cc3ccc(-c4cnc([C@@H]5CCCN5C(=O)[C@@H](NC(=O)N5CCCC5)C(C)C)[nH]4)cc3)cc2)[nH]1` [Compound 288], for which the EC50 is over 1000 nM.
Consider `COC(=O)N[C@H](C(=O)N1CCC[C@H]1c1ncc(-c2ccc(C#Cc3ccc(-c4cnc([C@H](C)NC(=O)[C@@H](NC(=O)OC)[C@@H](C)OC)[nH]4)cc3)cc2)[nH]1)C(C)OC` (stereo partly drawn) [Compound 289], for which the EC50 was under 1 nM.
For `COC(=O)N[C@@H](C(=O)N[C@@H](C)c1ncc(-c2ccc(C#Cc3ccc(-c4cnc([C@@H]5CCCN5C(=O)[C@H](NC(=O)OC)C(C)C)[nH]4)cc3)cc2)[nH]1)C(C)C` [Compound 290], the EC50 was over 1000 nM.
The figure for `COC(=O)N[C@H](C(=O)N[C@@H](C)c1ncc(-c2ccc(C#Cc3ccc(-c4cnc([C@@H]5CCCN5C(=O)[C@@H](NC(=O)OC)[C@@H](C)O)[nH]4)cc3)cc2)[nH]1)[C@@H](C)O` [Compound 291] is under 1 nM; for `COC(=O)N[C@@H](C(=O)N1CCC[C@H]1c1ncc(-c2ccc(C#Cc3ccc(-c4cnc([C@@H]5CCCN5C(=O)[C@H](NC(=O)OC)C(C)C)[nH]4)cc3)cc2)[nH]1)C(C)C` [Compound 292] it is over 1000 nM; for `CC(C)[C@@H](NC(=O)N1CCCC1)C(=O)N1CCC[C@H]1c1ncc(-c2ccc(C#Cc3ccc(-c4cnc([C@@H]5CCCN5C(=O)[C@H](NC(=O)N5CCCC5)C(C)C)[nH]4)cc3)cc2)[nH]1` [Compound 293] it is over 1000 nM.
The figure for `CC(C)(C)OC(=O)N[C@@H](C(=O)N1CCC[C@H]1c1ncc(C#Cc2ccc(C#Cc3cnc([C@@H]4CCCN4C(=O)[C@H](NC(=O)OC(C)(C)C)c4ccccc4)[nH]3)cc2)[nH]1)c1ccccc1` [Compound 300] is under 1 nM.
For `CC(C)[C@@H](NC(=O)OC(C)(C)C)C(=O)N1CCC[C@H]1c1ncc(C#Cc2ccc(C#Cc3cnc([C@@H]4CCCN4C(=O)[C@H](NC(=O)OC(C)(C)C)C(C)C)[nH]3)cc2)[nH]1` [Compound 301] the value was over 1000 nM; for `CC(C)[C@@H](NC(=O)C1CC1)C(=O)N1CCC[C@H]1c1ncc(C#Cc2ccc(C#Cc3cnc([C@@H]4CCCN4C(=O)[C@H](NC(=O)C4CC4)C(C)C)[nH]3)cc2)[nH]1` [Compound 302], over 1000 nM.
Regarding `O=C(N[C@@H](C(=O)N1CCC[C@H]1c1ncc(C#Cc2ccc(C#Cc3cnc([C@@H]4CCCN4C(=O)[C@H](NC(=O)C4CC4)c4ccccc4)[nH]3)cc2)[nH]1)c1ccccc1)C1CC1` [Compound 303], the EC50 is under 1 nM.
As for `COC(=O)N[C@@H](C(=O)N1CCC[C@H]1c1ncc(C#Cc2ccc(C#Cc3cnc([C@@H]4CCCN4C(=O)[C@H](NC(=O)OC)c4ccccc4)[nH]3)cc2)[nH]1)c1ccccc1` [Compound 304], the EC50 was under 1 nM.
For `CN(C)[C@@H](C(=O)N1CCC[C@H]1c1ncc(C#Cc2ccc(C#Cc3cnc([C@@H]4CCCN4C(=O)[C@@H](c4ccccc4)N(C)C)[nH]3)cc2)[nH]1)c1ccccc1` [Compound 305] the value was under 1 nM; for `CC(=O)N[C@@H](C(=O)N1CCC[C@H]1c1ncc(C#Cc2ccc(C#Cc3cnc([C@@H]4CCCN4C(=O)[C@H](NC(C)=O)c4ccccc4)[nH]3)cc2)[nH]1)c1ccccc1` [Compound 306], under 1 nM; for `CNC(=O)N[C@@H](C(=O)N1CCC[C@H]1c1ncc(C#Cc2ccc(C#Cc3cnc([C@@H]4CCCN4C(=O)[C@H](NC(=O)NC)c4ccccc4)[nH]3)cc2)[nH]1)c1ccccc1` [Compound 307], under 1 nM.
For `CN(C)C(=O)N[C@@H](C(=O)N1CCC[C@H]1c1ncc(C#Cc2ccc(C#Cc3cnc([C@@H]4CCCN4C(=O)[C@H](NC(=O)N(C)C)c4ccccc4)[nH]3)cc2)[nH]1)c1ccccc1` [Compound 308] the value was under 1 nM.
For `O=C(N[C@@H](C(=O)N1CCC[C@H]1c1ncc(C#Cc2ccc(C#Cc3cnc([C@@H]4CCCN4C(=O)[C@H](NC(=O)N4CCOCC4)c4ccccc4)[nH]3)cc2)[nH]1)c1ccccc1)N1CCOCC1` [Compound 309] the value was under 1 nM; for `CN1CCN(C(=O)N[C@@H](C(=O)N2CCC[C@H]2c2ncc(C#Cc3ccc(C#Cc4cnc([C@@H]5CCCN5C(=O)[C@H](NC(=O)N5CCN(C)CC5)c5ccccc5)[nH]4)cc3)[nH]2)c2ccccc2)CC1` [Compound 310], 1 to 9.9 nM.
For the compound `COC(=O)N[C@@H](C(=O)N1CCC[C@H]1c1ncc(C#Cc2ccc(C#Cc3cnc([C@@H]4CCCN4C(=O)[C@@H](c4ccccc4)N4CCCC4)[nH]3)cc2)[nH]1)c1ccccc1` [Compound 311], the EC50 was under 1 nM.
The figure for `COC(=O)N[C@@H](C(=O)N1CCC[C@H]1c1ncc(C#Cc2ccc(C#Cc3cnc([C@@H]4CCCN4C(=O)[C@@H](c4ccccc4)N4CCCCC4)[nH]3)cc2)[nH]1)c1ccccc1` [Compound 312] is under 1 nM; for `COC(=O)N[C@@H](C(=O)N1CCC[C@H]1c1ncc(C#Cc2ccc(C#Cc3cnc([C@@H]4CCCN4C(=O)[C@@H](c4ccccc4)N4CCOCC4)[nH]3)cc2)[nH]1)c1ccccc1` [Compound 313] it is under 1 nM; for `COC(=O)N[C@@H](C(=O)N1CCC[C@H]1c1ncc(C#Cc2ccc(C#Cc3cnc([C@@H]4CCCN4C(=O)[C@@H](c4ccccc4)N(C)C)[nH]3)cc2)[nH]1)c1ccccc1` [Compound 314] it is under 1 nM.
For the compound `CCN(CC)[C@@H](C(=O)N1CCC[C@H]1c1ncc(C#Cc2ccc(C#Cc3cnc([C@@H]4CCCN4C(=O)[C@H](NC(=O)OC)c4ccccc4)[nH]3)cc2)[nH]1)c1ccccc1` [Compound 315], the EC50 is under 1 nM.
The figure for `COC(=O)N[C@@H](C(=O)N1CCC[C@H]1c1ncc(C#Cc2ccc3nc([C@@H]4CCCN4C(=O)[C@H](NC(=O)OC)c4ccccc4)[nH]c3c2)[nH]1)c1ccccc1` [Compound 700] is under 1 nM.
As for `COC(=O)N[C@@H](C(=O)N1CCC[C@H]1c1ncc(C#Cc2ccc(-c3ccc(-c4cnc([C@@H]5CCCN5C(=O)[C@H](NC(=O)OC)c5ccccc5)[nH]4)cc3)cc2)[nH]1)c1ccccc1` [Compound 750], the EC50 was under 1 nM.
For `CCN(CC)[C@@H](C(=O)N1CCC[C@H]1c1ncc(-c2ccc(-c3ccc(C#Cc4cnc([C@@H]5CCCN5C(=O)[C@H](NC(=O)OC)c5ccccc5)[nH]4)cc3)cc2)[nH]1)c1ccccc1` [Compound 751] the value was under 1 nM.
